Test results: patent US20230192686A1, “1H-PYRROLO[2,3-B]PYRIDINES AND PREPARATION AND USES THEREOF” (BioSplice Therapeutics, Inc., priority 2021, published 2023)

These compounds were tested against recombinant DYRK1A kinase (Homo sapiens, UniProt Q13627) (assay: DYRK1A kinase assay (Ser/Thr 18 peptide Z-lyte FRET)). Conditions: DYRK1A kinase activity; 15 μM ATP, 4 μM Ser/Thr peptide 18, one hour at room temperature.
Assay type: biochemical
Procedure, shortened: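 Recombinant DYRK1A at 0.25 μg/mL was incubated 1 h at room temperature with 15 μM ATP, 4 μM Ser/Thr 18 peptide and compound, in duplicate, 11-point series from 10 μM. Phosphorylation was read by Z-lyte FRET after 1 h protease development, as the coumarin/fluorescein emission ratio converted to % phosphorylation. IC50 by non-linear regression.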
In the case of Cc1nc2c(F)cc(-c3c[nH]c4ncc(-c5cccnc5)cc34)cc2n1C1CCN(C)CC1 [Compound 1166, 4-Fluoro-2-methyl-1-(1-methylpiperidin-4-yl)-6-(5-(pyridin-3-yl)-1H-pyrrolo[2,3-b]pyridin-3-yl)-1H-benzo[d]imidazole], the EC50 is reported as 3 nM. In the case of CN1CCN(C(=O)c2cnn3ccc(-c4c[nH]c5nc(C6CC6)ccc45)cc23)CC1 [Compound 1517, (5-(6-Cyclopropyl-1H-pyrrolo[2,3-b]pyridin-3-yl)pyrazolo[1,5-a]pyridin-3-yl)(4-methylpiperazin-1-yl)methanone], the EC50 is reported as 66 nM. Cc1nc2c(F)cc(-c3c[nH]c4nc(C5CCC5)ccc34)cc2n1C(C)C [Compound 1543, 6-(6-Cyclobutyl-1H-pyrrolo[2,3-b]pyridin-3-yl)-4-fluoro-1-isopropyl-2-methyl-1H-benzo[d]imidazole] showed an EC50 of 43 nM. For c1cnc2ccc(-c3c[nH]c4nc(OCC5CC5)ccc34)cc2c1 [Compound 2053, 6-(6-(Cyclopropylmethoxy)-1H-pyrrolo[2,3-b]pyridin-3-yl)quinoline], the EC50 was 76 nM. In the case of Cc1nc2c(F)cc(-c3c[nH]c4ncc(C(=O)O)cc34)cc2n1C(C)C [Compound 2043, 3-(4-Fluoro-1-isopropyl-2-methyl-1H-benzo[d]imidazol-6-yl)-1H-pyrrolo[2,3-b]pyridine-5-carboxylic acid], the EC50 is reported as 36 nM. c1cnc2[nH]cc(-c3ccc4ncnn4c3)c2c1 [Compound 29, 6-(1H-Pyrrolo[2,3-b]pyridin-3-yl)-[1,2,4]triazolo[1,5-a]pyridine] gave an EC50 of 10 nM. Work on CN1CCC(NC(=O)c2cnc3ccc(-c4c[nH]c5ncccc45)cn23)CC1 [Compound 14, N-(1-Methylpiperidin-4-yl)-6-(1H-pyrrolo[2,3-b]pyridin-3-yl)imidazo[1,2-a]pyridine-3-carboxamide] yielded an EC50 of 1 nM. In the case of COc1ccc(-c2c[nH]c3ncccc23)cn1 [Compound 67, 3-(6-Methoxypyridin-3-yl)-1H-pyrrolo[2,3-b]pyridine], the EC50 is reported as 19 nM. Work on Cc1nc2c(F)cc(-c3c[nH]c4ncc(-c5ccnc(N6CCN(C)CC6)c5)cc34)cc2n1C(C)C [Compound 1375, 4-Fluoro-1-isopropyl-2-methyl-6-(5-(2-(4-methylpiperazin-1-yl)pyridin-4-yl)-1H-pyrrolo[2,3-b]pyridin-3-yl)-1H-benzo[d]imidazole] yielded an EC50 of 2 nM. O=C(c1cnn2ccc(-c3c[nH]c4ncccc34)cc12)N1CCOCC1 [Compound 60, (5-(1H-Pyrrolo[2,3-b]pyridin-3-yl)pyrazolo[1,5-a]pyridin-3-yl) (morpholino)methanone] was tested, and the EC50 was 6 nM. With Cc1nc2c(F)cc(-c3c[nH]c4ncc(Nc5ccnc(N6CCN(C)CC6)c5)cc34)cc2n1C(C)C [Compound 871, 3-(4-Fluoro-1-isopropyl-2-methyl-1H-benzo[d]imidazol-6-yl)-N-(2-(4-methylpiperazin-1-yl)pyridin-4-yl)-1H-pyrrolo[2,3-b]pyridin-5-amine] the EC50 was 2 nM. CN1CCC(C(=O)Nc2cnc3[nH]cc(-c4ccc5ncccc5c4)c3c2)CC1 [Compound 648, 1-Methyl-N-(3-(quinolin-6-yl)-1H-pyrrolo[2,3-b]pyridin-5-yl) piperidine-4-carboxamide] showed an EC50 of 2 nM. In the case of CN1CCN(C2CCN(C(=O)c3cnn4ccc(-c5c[nH]c6ncccc56)cc34)CC2)CC1 [Compound 54, (5-(1H-Pyrrolo[2,3-b]pyridin-3-yl)pyrazolo[1,5-a]pyridin-3-yl)(4-(4-methylpiperazin-1-yl)piperidin-1-yl)methanone], the EC50 is reported as 18 nM. Compound c1cnc2[nH]cc(-c3ccc4nccnc4c3)c2c1 [Compound 90, 6-(1H-Pyrrolo[2,3-b]pyridin-3-yl)quinoxaline] has an EC50 of 3 nM. Work on CN1CCN(C(=O)c2cnc3[nH]cc(-c4ccn5ncc(-c6cnn(C)c6)c5c4)c3c2)CC1 [Compound 502, (3-(3-(1-Methyl-1H-pyrazol-4-yl)pyrazolo[1,5-a]pyridin-5-yl)-1H-pyrrolo[2,3-b]pyridin-5-yl)(4-methylpiperazin-1-yl)methanone] yielded an EC50 of 16 nM. Compound Cc1ncccc1-c1cnc2[nH]cc(-c3cc(F)c4nc(C)n(C(C)C)c4c3)c2c1 [Compound 1207, 4-Fluoro-1-isopropyl-2-methyl-6-(5-(2-methylpyridin-3-yl)-1H-pyrrolo[2,3-b]pyridin-3-yl)-1H-benzo[d]imidazole] has an EC50 of 2 nM. For COc1cnc2[nH]cc(-c3ccn4ncc(C(=O)N5CCN(C)CC5)c4c3)c2c1 [Compound 2047, (5-(5-Methoxy-1H-pyrrolo[2,3-b]pyridin-3-yl)pyrazolo[1,5-a]pyridin-3-yl)(4-methylpiperazin-1-yl)methanone], the EC50 was 32 nM. For CN1CCC(Oc2ncnc3ccc(-c4c[nH]c5ncccc45)cc23)CC1 [Compound 99, 4-((1-Methylpiperidin-4-yl)oxy)-6-(1H-pyrrolo[2,3-b]pyridin-3-yl) quinazoline], the EC50 was 2 nM. Compound CN1CCN(c2cc(-c3cnc4[nH]cc(-c5cc6ccncc6s5)c4c3)ccn2)CC1 [Compound 1370, 2-(5-(2-(4-Methylpiperazin-1-yl)pyridin-4-yl)-1H-pyrrolo[2,3-b]pyridin-3-yl)thieno[2,3-c]pyridine] has an EC50 of 6 nM. Work on Cc1nc2c(F)cc(-c3c[nH]c4nc(NC(=O)C5CCN(C)CC5)ccc34)cc2n1C(C)C [Compound 1837, N-(3-(4-Fluoro-1-isopropyl-2-methyl-1H-benzo[d]imidazol-6-yl)-1H-pyrrolo[2,3-b]pyridin-6-yl)-1-methylpiperidine-4-carboxamide] yielded an EC50 of 1 nM. Cc1nc2c(F)cc(-c3c[nH]c4nc(C(C)C)ccc34)cc2n1C(C)C [Compound 2045, 4-Fluoro-1-isopropyl-6-(6-isopropyl-1H-pyrrolo[2,3-b]pyridin-3-yl)-2-methyl-1H-benzo[d]imidazole] gave an EC50 of 36 nM. c1cnc2[nH]cc(-c3ccc4nc5n(c4n3)CCC5)c2c1 [Compound 28, 2-(1H-Pyrrolo[2,3-b]pyridin-3-yl)-7,8-dihydro-6H-pyrrolo [2′,1′:2,3]imidazo[4,5-b]pyridine] was tested, and the EC50 was 19 nM. CN(CC(F)F)C(=O)c1cnc2ccc(-c3c[nH]c4nc(C5CC5)ccc34)cn12 [Compound 2056, 6-(6-cyclopropyl-1H-pyrrolo[2,3-b]pyridin-3-yl)-N-(2,2-difluoroethyl)-N-methylimidazo[1,2-a]pyridine-3-carboxamide] showed an EC50 of 5 nM. Compound CN1CCC(C(=O)Nc2ccc3c(-c4ccc5nn(C)cc5c4)c[nH]c3n2)CC1 [Compound 1831, 1-Methyl-N-(3-(2-methyl-2H-indazol-5-yl)-1H-pyrrolo[2,3-b]pyridin-6-yl)piperidine-4-carboxamide] has an EC50 of 1 nM. In the case of CN1CCC(Oc2cnc3ccc(-c4c[nH]c5ncccc45)cc3n2)CC1 [Compound 91, 2-((1-Methylpiperidin-4-yl)oxy)-7-(1H-pyrrolo[2,3-b]pyridin-3-yl) quinoxaline], the EC50 is reported as 3 nM. CN1CCN(c2cc(-c3cnc4[nH]cc(-c5ccc6ncccc6c5)c4c3)ccn2)CC1 [Compound 1404, 6-(5-(2-(4-Methylpiperazin-1-yl)pyridin-4-yl)-1H-pyrrolo[2,3-b]pyridin-3-yl)quinoline] gave an EC50 of 1 nM. Compound CN1CCC(N(C)C(=O)c2cnn3ccc(-c4c[nH]c5ncccc45)cc23)CC1 [Compound 46, N-Methyl-N-(1-methylpiperidin-4-yl)-5-(1H-pyrrolo[2,3-b]pyridin-3-yl)pyrazolo[1,5-a]pyridine-3-carboxamide] has an EC50 of 5 nM. In the case of c1cnc2[nH]cc(-c3cc4ccncc4s3)c2c1 [Compound 5, 2-(1H-Pyrrolo[2,3-b]pyridin-3-yl)thieno[2,3-c]pyridine], the EC50 is reported as 10 nM. Compound O=C(Nc1ccc2c(-c3ccc4c(c3)C3(CCNCC3)CC4=O)c[nH]c2n1)c1ccncc1 [Compound 1898, N-(3-(3-oxo-2,3-dihydrospiro[indene-1,4′-piperidin]-6-yl)-1H-pyrrolo [2,3-b]pyridin-6-yl)isonicotinamide] has an EC50 of 20 nM. Work on Cn1cc2cc(-c3c[nH]c4nc(C5CC5)ccc34)ccc2n1 [Compound 1495, 5-(6-Cyclopropyl-1H-pyrrolo[2,3-b]pyridin-3-yl)-2-methyl-2H-indazole] yielded an EC50 of 105 nM. CN1CC2CN(C(=O)c3cnn4ccc(-c5c[nH]c6ncccc56)cc34)CC2C1 (stereo not shown) [Compound 64, (5-(1H-Pyrrolo[2,3-b]pyridin-3-yl)pyrazolo[1,5-a]pyridin-3-yl)(5-methylhexahydropyrrolo[3,4-c]pyrrol-2(1H)-yl)methanone] gave an EC50 of 6 nM. In the case of O=C(NC1CCN(Cc2ccccn2)CC1)c1cnn2ccc(-c3c[nH]c4ncccc34)cc12 [Compound 51, N-(1-(Pyridin-2-ylmethyl)piperidin-4-yl)-5-(1H-pyrrolo[2,3-b]pyridin-3-yl)pyrazolo[1,5-a]pyridine-3-carboxamide], the EC50 is reported as 1 nM. CN1CCC(C(=O)Nc2ccc3c(-c4ccnc(N5CCN(C)CC5)c4)c[nH]c3n2)CC1 [Compound 1855, 1-Methyl-N-(3-(2-(4-methylpiperazin-1-yl)pyridin-4-yl)-1H-pyrrolo [2,3-b]pyridin-6-yl)piperidine-4-carboxamide] gave an EC50 of 30 nM. CN1CCC(Nc2cncc(-c3c[nH]c4ncccc34)n2)CC1 [Compound 70, N-(1-Methylpiperidin-4-yl)-6-(1H-pyrrolo[2,3-b]pyridin-3-yl)pyrazin-2-amine] showed an EC50 of 13 nM. In the case of Cc1nc2c(F)cc(-c3c[nH]c4ncc(C5=CCN(C)CC5)cc34)cc2n1C(C)C [Compound 325, 4-Fluoro-1-isopropyl-2-methyl-6-(5-(1-methyl-1,2,3,6-tetrahydropyridin-4-yl)-1H-pyrrolo[2,3-b]pyridin-3-yl)-1H-benzo[d]imidazole], the EC50 is reported as 2 nM. O=C1NC2(CCCCC2)c2cc(-c3c[nH]c4ncccc34)ccc21 [Compound 78, 6′-(1H-Pyrrolo[2,3-b]pyridin-3-yl)spiro[cyclohexane-1,1′-isoindolin]-3′-one] gave an EC50 of 6 nM. For O=C(Nc1cccnc1)c1cnn2ccc(-c3c[nH]c4ncccc34)cc12 [Compound 52, N-(Pyridin-3-yl)-5-(1H-pyrrolo[2,3-b]pyridin-3-yl)pyrazolo[1,5-a]pyridine-3-carboxamide], the EC50 was 2 nM.
